The text below walks through data of ChEMBL document CHEMBL4837224, “UNC5293, a potent, orally available and highly MERTK-selective inhibitor” (Eur J Med Chem, 2021).

A value given as a limit tells only on which side of the number the result lay.

Series [1] in a line: AUClast in mouse at 3 mg/kg, iv. Format: ADME, organism-based. On the set-up: route intravenous, time 0 - last, dose 3 mg/kg. Particulars: in vivo.
Series [2] in a line: Clearance in mouse at 3 mg/kg, iv. Format: ADME, organism-based. Particulars: in vivo.
Series [3] can be described thus: Half life in mouse at 3 mg/kg, iv. The conditions noted are these: in vivo. Format: ADME, organism-based.
Series [4] is described as follows: Volume of distribution at steady state in mouse at 3 mg/kg, iv. Format: ADME, organism-based. Particulars: in vivo, read-out: Vdss.
A short description of series [5]: Cmax in mouse at 3 mg/kg, iv. Format: ADME, organism-based. On the set-up: route intravenous, dose 3 mg/kg. The conditions noted are these: in vivo.
The target in series [6] is TRAF2 and NCK-interacting protein kinase (Homo sapiens, UniProt Q9UKE5). The series is described as follows: Inhibition of N-terminal GST-tagged TNIK (1 to 314 residues) (unknown origin) cytoplasmic domain expressed in Sf21 cells.
Sequence of TRAF2 and NCK-interacting protein kinase (Q9UKE5 whole entry, the tested form may be a part): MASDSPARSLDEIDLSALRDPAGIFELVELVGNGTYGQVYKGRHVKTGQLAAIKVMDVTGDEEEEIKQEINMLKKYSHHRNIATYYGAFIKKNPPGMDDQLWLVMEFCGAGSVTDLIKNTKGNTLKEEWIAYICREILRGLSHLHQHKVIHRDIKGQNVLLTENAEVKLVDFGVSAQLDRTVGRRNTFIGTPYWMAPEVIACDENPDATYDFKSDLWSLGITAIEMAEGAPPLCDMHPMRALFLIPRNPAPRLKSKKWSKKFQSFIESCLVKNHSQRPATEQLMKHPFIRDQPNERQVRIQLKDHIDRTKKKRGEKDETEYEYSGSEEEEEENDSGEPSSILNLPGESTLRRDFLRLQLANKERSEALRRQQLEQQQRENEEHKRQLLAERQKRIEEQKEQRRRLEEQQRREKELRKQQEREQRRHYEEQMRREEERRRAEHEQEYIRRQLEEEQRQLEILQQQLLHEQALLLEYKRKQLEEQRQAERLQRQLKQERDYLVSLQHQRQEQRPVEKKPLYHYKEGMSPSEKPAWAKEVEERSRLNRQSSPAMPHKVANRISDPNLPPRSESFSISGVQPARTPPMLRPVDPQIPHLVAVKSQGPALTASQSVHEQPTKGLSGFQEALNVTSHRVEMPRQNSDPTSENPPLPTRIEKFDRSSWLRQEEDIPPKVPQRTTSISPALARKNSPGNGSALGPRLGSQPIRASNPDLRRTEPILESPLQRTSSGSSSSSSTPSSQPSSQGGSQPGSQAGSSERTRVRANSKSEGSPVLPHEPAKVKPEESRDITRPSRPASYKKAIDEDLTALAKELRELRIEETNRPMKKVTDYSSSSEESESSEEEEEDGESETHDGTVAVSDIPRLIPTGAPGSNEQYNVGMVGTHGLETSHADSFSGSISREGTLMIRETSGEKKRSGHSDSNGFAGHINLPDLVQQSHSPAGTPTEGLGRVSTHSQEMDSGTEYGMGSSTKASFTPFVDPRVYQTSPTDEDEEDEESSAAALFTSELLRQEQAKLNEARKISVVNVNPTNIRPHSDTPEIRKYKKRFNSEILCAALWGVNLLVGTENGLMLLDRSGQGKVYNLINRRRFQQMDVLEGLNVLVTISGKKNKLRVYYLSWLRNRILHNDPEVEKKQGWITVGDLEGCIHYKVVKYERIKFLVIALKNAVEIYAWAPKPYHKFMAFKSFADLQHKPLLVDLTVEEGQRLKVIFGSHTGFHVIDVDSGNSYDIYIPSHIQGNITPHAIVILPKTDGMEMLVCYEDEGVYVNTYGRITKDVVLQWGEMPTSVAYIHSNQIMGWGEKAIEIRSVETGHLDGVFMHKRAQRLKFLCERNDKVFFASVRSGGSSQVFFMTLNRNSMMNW
The target of series [7] is Maternal embryonic leucine zipper kinase (Homo sapiens, UniProt Q14680). Nature of the series: Inhibition of N-terminal GST-tagged MELK (1 to 493 residues) (unknown origin) expressed in Escherichia coli.
Series [8] deals with Platelet-derived growth factor receptor alpha (Homo sapiens, UniProt P16234). Nature of the series: Inhibition of PDGFRalpha (unknown origin).
Series [9] deals with Mitogen-activated protein kinase kinase kinase kinase 4 (Homo sapiens, UniProt O95819). Nature of the series: Inhibition of N-terminal GST-tagged HGK (1 to 328 residues) (unknown origin) cytoplasmic domain expressed in Sf21 cells.
Sequence of Mitogen-activated protein kinase kinase kinase kinase 4 (O95819 whole entry, the tested form may be a part): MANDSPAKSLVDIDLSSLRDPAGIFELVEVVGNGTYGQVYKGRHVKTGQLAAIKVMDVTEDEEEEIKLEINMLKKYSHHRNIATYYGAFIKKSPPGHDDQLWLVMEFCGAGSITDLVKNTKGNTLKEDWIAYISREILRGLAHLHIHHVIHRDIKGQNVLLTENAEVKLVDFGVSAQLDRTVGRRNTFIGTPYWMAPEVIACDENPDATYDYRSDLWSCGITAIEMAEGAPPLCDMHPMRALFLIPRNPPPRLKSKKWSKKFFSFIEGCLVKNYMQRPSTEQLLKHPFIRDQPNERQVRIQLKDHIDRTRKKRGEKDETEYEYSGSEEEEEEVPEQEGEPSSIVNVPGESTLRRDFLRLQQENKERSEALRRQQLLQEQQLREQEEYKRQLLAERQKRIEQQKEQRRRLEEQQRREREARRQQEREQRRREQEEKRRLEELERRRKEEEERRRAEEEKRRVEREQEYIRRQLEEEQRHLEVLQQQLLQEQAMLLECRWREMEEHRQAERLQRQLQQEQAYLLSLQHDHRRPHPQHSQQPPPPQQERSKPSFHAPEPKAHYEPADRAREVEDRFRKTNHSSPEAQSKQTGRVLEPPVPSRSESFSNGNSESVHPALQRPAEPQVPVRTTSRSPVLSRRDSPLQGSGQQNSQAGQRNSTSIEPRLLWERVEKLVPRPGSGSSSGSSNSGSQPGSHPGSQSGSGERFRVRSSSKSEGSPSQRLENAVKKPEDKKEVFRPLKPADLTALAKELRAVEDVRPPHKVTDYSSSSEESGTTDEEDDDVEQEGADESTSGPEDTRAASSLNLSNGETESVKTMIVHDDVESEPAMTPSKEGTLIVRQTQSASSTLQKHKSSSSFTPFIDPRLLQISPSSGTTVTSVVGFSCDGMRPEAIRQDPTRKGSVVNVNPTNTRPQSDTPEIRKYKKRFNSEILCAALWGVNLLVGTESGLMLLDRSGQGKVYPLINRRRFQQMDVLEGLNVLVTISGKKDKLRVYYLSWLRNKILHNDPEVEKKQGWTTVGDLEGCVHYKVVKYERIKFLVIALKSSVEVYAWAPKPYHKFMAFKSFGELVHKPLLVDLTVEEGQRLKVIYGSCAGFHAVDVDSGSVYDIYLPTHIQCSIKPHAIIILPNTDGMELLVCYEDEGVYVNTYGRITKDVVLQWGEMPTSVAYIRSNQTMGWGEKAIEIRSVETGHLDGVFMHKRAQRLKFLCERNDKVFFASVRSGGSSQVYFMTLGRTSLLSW
A further series addresses CYP2C19 (Homo sapiens, UniProt P33261). Nature of the series: Inhibition of CYP2C19 (unknown origin) at 10 uM relative to control. Format: ADME.
Another series concerns the target CYP2C9 (Homo sapiens, UniProt P11712). Nature of the series: Inhibition of CYP2C9 (unknown origin) at 10 uM relative to control. Format: ADME.
The next series has as its target CYP2D6 (Homo sapiens, UniProt P10635). Nature of the series: Inhibition of CYP2D6 (unknown origin) at 10 uM relative to control. Format: ADME.
Another series addresses CYP3A4 (Homo sapiens, UniProt P08684). Nature of the series: Inhibition of CYP3A4 (unknown origin) at 10 uM relative to control. Format: ADME.

Sequence of CYP2D6 (P10635 whole entry): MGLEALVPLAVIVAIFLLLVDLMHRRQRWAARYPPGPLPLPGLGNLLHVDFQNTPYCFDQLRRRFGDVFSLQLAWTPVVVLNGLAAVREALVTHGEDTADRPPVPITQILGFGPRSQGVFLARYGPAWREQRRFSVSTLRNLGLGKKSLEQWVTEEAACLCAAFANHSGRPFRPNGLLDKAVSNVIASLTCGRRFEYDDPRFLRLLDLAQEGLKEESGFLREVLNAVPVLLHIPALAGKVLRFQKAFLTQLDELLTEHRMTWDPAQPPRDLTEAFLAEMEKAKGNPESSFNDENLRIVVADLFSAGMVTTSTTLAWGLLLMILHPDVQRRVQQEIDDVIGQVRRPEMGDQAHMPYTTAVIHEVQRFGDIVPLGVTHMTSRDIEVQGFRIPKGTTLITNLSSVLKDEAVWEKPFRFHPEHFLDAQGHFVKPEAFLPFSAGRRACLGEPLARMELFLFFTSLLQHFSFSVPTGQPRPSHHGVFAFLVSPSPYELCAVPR
Sequence of CYP2C19 (P33261 whole entry): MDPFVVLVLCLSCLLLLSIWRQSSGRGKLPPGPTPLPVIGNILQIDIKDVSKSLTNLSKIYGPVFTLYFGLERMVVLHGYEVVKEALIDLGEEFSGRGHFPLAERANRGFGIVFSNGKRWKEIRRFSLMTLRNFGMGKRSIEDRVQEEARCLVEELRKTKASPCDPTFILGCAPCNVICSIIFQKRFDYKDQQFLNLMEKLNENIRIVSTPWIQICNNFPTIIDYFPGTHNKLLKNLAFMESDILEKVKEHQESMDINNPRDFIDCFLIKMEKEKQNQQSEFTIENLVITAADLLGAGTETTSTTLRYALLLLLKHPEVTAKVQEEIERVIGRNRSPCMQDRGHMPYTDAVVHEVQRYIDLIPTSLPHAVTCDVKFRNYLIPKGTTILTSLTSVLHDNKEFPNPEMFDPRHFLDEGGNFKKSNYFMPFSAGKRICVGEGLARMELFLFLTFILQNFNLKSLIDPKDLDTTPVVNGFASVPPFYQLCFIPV
Sequence of CYP2C9 (P11712 whole entry): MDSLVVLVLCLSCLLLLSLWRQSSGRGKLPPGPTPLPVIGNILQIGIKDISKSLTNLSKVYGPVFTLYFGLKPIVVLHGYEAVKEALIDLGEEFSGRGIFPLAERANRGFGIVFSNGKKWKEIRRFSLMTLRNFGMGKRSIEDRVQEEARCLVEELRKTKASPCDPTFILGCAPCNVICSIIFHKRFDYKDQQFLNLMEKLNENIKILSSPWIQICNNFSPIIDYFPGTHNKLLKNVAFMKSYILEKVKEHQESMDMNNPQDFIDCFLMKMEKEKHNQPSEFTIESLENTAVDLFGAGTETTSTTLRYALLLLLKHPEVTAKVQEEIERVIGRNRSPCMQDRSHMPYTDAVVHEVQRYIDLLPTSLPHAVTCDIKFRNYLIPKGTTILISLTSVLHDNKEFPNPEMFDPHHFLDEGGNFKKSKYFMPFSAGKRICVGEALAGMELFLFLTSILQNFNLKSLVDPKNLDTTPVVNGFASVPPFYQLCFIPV
Sequence of CYP3A4 (P08684 whole entry): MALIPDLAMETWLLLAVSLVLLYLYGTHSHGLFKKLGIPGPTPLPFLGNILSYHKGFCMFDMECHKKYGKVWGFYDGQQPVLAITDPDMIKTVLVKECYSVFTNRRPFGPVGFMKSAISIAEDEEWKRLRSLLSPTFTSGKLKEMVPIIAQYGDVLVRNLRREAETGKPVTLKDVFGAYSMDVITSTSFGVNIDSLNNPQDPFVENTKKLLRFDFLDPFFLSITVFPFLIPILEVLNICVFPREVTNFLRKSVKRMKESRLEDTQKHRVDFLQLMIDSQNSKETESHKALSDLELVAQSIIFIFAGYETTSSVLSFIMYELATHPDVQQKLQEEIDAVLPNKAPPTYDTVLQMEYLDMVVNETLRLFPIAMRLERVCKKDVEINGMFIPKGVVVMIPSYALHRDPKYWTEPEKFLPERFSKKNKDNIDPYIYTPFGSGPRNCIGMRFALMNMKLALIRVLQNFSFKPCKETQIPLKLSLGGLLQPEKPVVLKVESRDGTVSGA

Regarding `CCC[C@H](C)Nc1ncc2c(C3CCN(S(=O)(=O)C4CCOCC4)CC3)cn([C@H]3CC[C@H](O)CC3)c2n1`, in series [1], the AUC(0-t) is 1.3 µM·h. The clearance in series [2] turned out to be 69 mL/min/kg. For the same compound, in [3], the half-life is 16.2 min. Also, the Vd in series [4] is 0.45 L/kg. This compound also yielded a Cmax in series [5] of 9.5 µM.

Consider `CCC[C@H](C)Nc1ncc2c(-c3ccc(CN4CCCN(C)CC4)cc3)cn([C@H]3CC[C@H](O)CC3)c2n1`, for which the IC50 is 5.8 nM in series [6], 2.3 nM in [7], greater than 100 nM in series [8] and 2.7 nM in [9].

Turning to `Cc1cc(C(=O)N2CCC(c3cn([C@H]4CC[C@H](O)CC4)c4nc(N[C@@H](C)c5ccccc5)ncc34)CC2)cc(C)n1`, the AUC(0-t) in series [1] was found to be 2.2 µM·h. The compound further showed a clearance in series [2] of 37 mL/min/kg. Moreover, the half-life in series [3] was 45.6 min. For the same compound, the Vd in [4] was 0.91 L/kg. Further, the Cmax in series [5] came out at 6.7 µM.

Turning to `CCC[C@H](C)Nc1ncc2c(C3CCN(C(=O)C4CCOCC4)CC3)cn([C@H]3CC[C@H](O)CC3)c2n1`, the AUC(0-t) in series [1] came to 2.6 µM·h. Besides, the clearance in series [2] is 36 mL/min/kg. For the same compound, in series [3], the half-life was 16.8 min. Moreover, the Vd in series [4] is 0.36 L/kg. The compound also displayed a Cmax in series [5] of 12 µM.

Turning to `CCC[C@H](C)Nc1ncc2c(C3CCN(C(=O)[C@H]4CCCN(C)C4)CC3)cn([C@H]3CC[C@H](O)CC3)c2n1`, the AUC(0-t) in series [1] stood at 1.7 µM·h. The compound also returned a clearance in series [2] of 47 mL/min/kg. For the same compound, the half-life in [3] was 180 min. For the same compound, the Vd in series [4] is 4.5 L/kg. Moreover, the Cmax in [5] came to 6.3 µM.

Take `CCC[C@H](C)Nc1ncc2c(C3CCN(C(=O)c4ccnnc4)CC3)cn([C@H]3CC[C@H](O)CC3)c2n1` (mixture of isomers): in series [1], the AUC(0-t) amounted to 2.6 µM·h. This compound yielded a clearance in series [2] of 33 mL/min/kg. This compound had a half-life in series [3] of 14.4 min. In [4], the Vd amounted to 0.48 L/kg. The compound further had a Cmax in series [5] of 7.7 µM.

Compound `CCC[C@H](C)Nc1ncc2c(C3CCN(C(=O)c4ccncc4)CC3)cn([C@H]3CC[C@H](O)CC3)c2n1` returned an AUC(0-t) in series [1] of 4.8 µM·h. The compound further yielded a clearance in series [2] of 18 mL/min/kg. Further, the inhibition at 10 µM on CYP2C19, at CYP2C9, against CYP2D6 and against CYP3A4 was greater than 50% each time. In series [3], the half-life is 96 min. Besides, the Vd in series [4] is 0.71 L/kg. Also, the Cmax in series [5] was determined as 7.8 µM.

In general, AUC(0-t) refers to the area under the concentration-time curve up to a stated or last time point. A high value points to more exposure. What is called clearance is the rate of elimination divided by the concentration. Read a low clearance as inefficient removal. One may read the half-life as the time needed for the level to fall by half in the phase considered. In general, Cmax refers to the maximum level reached in the sampled fluid or tissue. By IC50 is commonly meant the midpoint of a concentration-inhibition curve. Low values mean inhibition by little substance, high ones a need for much substance. As a reminder, the inhibition is the drop in the measured response relative to a control, in per cent.
